Converted amounts (≈) assume the structure as drawn. Read-outs that look alike come from different tables or passages of the source.
What was measured:
Aspergillus fumigatus = assay: Minimal inhibitory concentration (MIC), turbidity method in peptone broth; type: cell-based
Text: (§1) Die antimikrobiellen Wirkungsspektren eines erfindungsgemäß vorgeschlagenen Wirkstoffes, nämlich des Laurinsäurecholinesterchlorids, und im Vergleich dazu von den homologen Essigsäure-, Capronsäure- und Palmitinsäurecholinesterchloriden sowie von den bekannten Konservierungsmitteln Adamantylcarbonsäurecholinesterchlorid und Chlor- 'hexidin-diacetat wurden durch Bestimmung der minimalen Hemmkonzentration nach der Trübungsmethode in Pepton-Nährlösung bei einem pH von 7,0 festgestellt. Diese Methode ist von K.H. Wallhäußer und H. Schmidt in "Sterilisation, Desinfektion, Konservierung, Chemotherapie", Stuttgart (1967), Seite 420-421 beschrieben. Die Ergebnisse sind in Tabelle 1 zusammengestellt.

[1] = tested on: Candida albicans ATCC 10231; assay: as above; type: cell-based
Text: as §1

E. coli ATCC 11229 = assay: as above; type: cell-based; conditions: Escherichia coli
Text: as §1

Fusorium oxysporum = assay: as above; type: cell-based
Text: as §1

[2] = tested on: Staphylococcus aureus ATCC 25923; assay: as above; type: cell-based
Text: as §1

Streptococcus pyogenes = assay: as above; type: cell-based
Text: as §1

Pseudomonas aeruginosa = assay: as above; type: cell-based; conditions: Pepton-Nährlösung, pH 7,0
Text: as §1, with “Diese Methode ist von K.H. Wallhäußer und H. Schmidt in "Sterilisation, Desinfektion, Konservierung, Chemotherapie", Stuttgart (1967), Seite 420-421 beschrieben.” left out

[3] = tested on: Bacillus cereus ATCC 11778; assay: as above; type: cell-based
Text: as §1

[4] = tested on: Bacillus subtilis ATCC 6633; assay: as above; type: cell-based
Text: as §1

Enterobacter aerogenes = assay: as above; type: cell-based; conditions: Klebsiella aerogenes
Text: as §1

Paecilomyces Ehrlich = assay: as above; type: cell-based
Text: as §1

Paecilomyces variati = assay: as above; type: cell-based
Text: as §1

Proteus vulgaris = assay: as above; type: cell-based
Text: as §1

Pseudomonas fluorescens = assay: as above; type: cell-based; conditions: Pepton-Nährlösung, pH 7,0
Text: as §1

[5] = tested on: Staphylococcus epidermis ATCC 12228; assay: as above; type: cell-based
Text: as §1

Acute oral toxicity test = assay: Acute oral toxicity test; design: species or system Mäuse; conditions: mouse, in vivo, black mice, mean (range in brackets), read-out: oraler LD 50-Wert
Text: Anhand des Laurinsäurecholinesterchlorids als Beispiel für die erfindungsgemäß verwendeten Laurinsäurecholinestersalze wurde ferner eine akute orale Toxizitätsprüfung durchgeführt, wobei schwarze Mäuse als Versuchstiere dienten. Dabei wurde gefunden, daß der orale LD 50-Wert im Mittel bei 3,15 (2,66 bis 3,74) g/kg Tiergewicht liegt.

Ratten = assay: Subacute oral toxicity test; type: in vivo; conditions: rats, 20 and 50 mg per kg body weight
[6] = tested on: Albino-Meerschweinchen (Pirlbright white); assay: Direct skin irritation test, ointment applied daily for one week; type: in vivo; conditions: 200 ppm in Vaseline ointment base, 12 guinea pigs, daily for one week on shorn flank
Description: (§2) Ferner wurde die Haut- und Schleimhautverträglichkeit von Laurinsäurecholinesterchlorid an Albino-Meerschweinchen aus einem leicht allergisierbaren Stamm (Pirlbright white) von 400 bis 700 g Gewicht und bei kleinwüchsigen Kaninchen von 1,5 bis 3 kg Gewicht geprüft. Die Tiere erhielten Standarddiät und Wasser nach Belieben. Die Raumtemperatur betrug etwa 20 °C, die Luftfeuchtigkeit etwa 50 %, die tägliche Belichtungsdauer 12 Stunden.
Die Prüfsubstanz wurde in einer Salbengrundlage aus Vaseline mit 200 ppm des Wirkstoffs auf direkte Hautreizung getestet. Bei 12 Meerschweinchen wurde die Präparation eine Woche lang täglich auf einem kurz geschorenen Bezirk an der Flanke aufgetragen und etwa 30 Sekunden eingerieben.

[7] = tested on: Albino-Meerschweinchen (Pirlbright white); assay: Skin sensitisation test (induction and provocation phase); type: in vivo; conditions: 200 ppm in Vaseline; three weeks induction, 5 days pause, 3 days provocation; checked after 24 h, 2 and 3 days
Description: as §2
Daraufhin wurde bei den gleichen Tieren die lokale Anwendung der Prüfsubstanz auf drei Wochen ausgedehnt (Induktionsphase). Nach anschließender 5-tägiger Pause wurde die Prüfsubstanz an drei aufeinanderfolgenden Tagen auf einem nicht vorbehandelten kontralateralen kurzgeschorenen Kontrollbezirk eingerieben (Provokationsphase),.
Aufgrund dieser Versuche ergab sich kein Hinweis auf sensibilisierende Eigenschaften des Laurinsäurecholinesterchlorids.

Kaninchenauge = assay: Ocular irritation test according to Draize (mucous membrane tolerance); type: in vivo, Kaninchen; conditions: 2.000 ppm in 0,9 % saline, 0,1 ml in conjunctival sac, eight rabbits
Description: as §2
Die Prüfung auf Schleimhautverträglichkeit wurde am Kaninchenauge vorgenommen. Die Prüfsubstanz wurde als Lösung von 2.000 ppm Laurinsäurecholinesterchlorid in 0,9 %iger wäßriger Kochsalzlösung im okkulären Reizwirkungstest nach Draize an acht Kaninchen auf Schleimhautverträglichkeit in der folgenden Weise geprüft.
0,1 ml der Testlösung wurden im Konjunktivalsack eines Tierauges unter Schließung von Ober- und Unterlid eingebracht. Man ließ die Lösung eine Minute lang einwirken. Das andere Auge wurde zur Kontrolle in gleicher Weise mit destilliertem Wasser behandelt.
Eine Minute nach der Applikation wurden bei der Hälfte der Tiere die behandelten Augen eine Minute lang mit '10 bis 20 ml lauwarmer physiologischer Kochsalzlösung naChgespült..Die Augen wurden anschließend bei allen behandelten Tieren geprüft.

[8] = Hydrolytic stability of aqueous solution kept boiling; type: physicochemical; conditions: 5 % aqueous solution
Text: Die erfindungsgemäß vorgeschlagenen Laurinsäurecholinestersalze besitzen auch die erforderliche Stabilität und Beständigkeit. So wurde eine 5 %ige wäßrige Laurinsäurecholinesterchloridlösung 8 Stunden am Sieden gehalten. Danach wurde eine nur unwesentliche Zunahme des Säuregehalts der Trockensubstanz von 2,5 auf 3,9 % festgestellt. Demnach kann unter den Bedingungen, unter denen die erfindungsgemäß vorgeschlagenen Wirkstoffe normaler; weise als Konservierungsmittel eingesetzt werden, eine hydrolytische Spaltung des Wirkstoffes praktisch ausgeschlossen werden.

[9] = tested on: Bakterien, Hefen und Schimmelpilze; assay: Preservative challenge test according to USP XIX; type: cell-based; conditions: 0,01 % in sterile aqueous solution; criteria of Wallhäußer for category I products, up to 28 days
Text: Als Beispiel für die erfindungsgemäß vorgesehenen Konservierungsmittel wurde Laurinsäurecholinesterchlorid einem Konservierungsbelastungstest nach der Vorschrift USP XIX unterworfen und mit bekannten Konservierungsmitteln, die in Kontaktlinsen-Pflegelösungen eingesetzt werden und dem gleichen Test unterworfen wurden, verglichen.. Die USP XIX schreibt vor, daß bei einem entsprechenden Belastungstest, bei dem man von einer Ausgangskeimzahl von […] ausgeht, ein'e Verminderung der Keimzahl innerhalb von 14 Tagen um 99,9 % bei den zugesetzten Bakterien erreicht wird und daß sich die zugesetzten Pilzsporen und Hefen innerhalb der gleichen Zeit nicht signifikant vermehren.
Um die antimikrobielle Wirkung der verschiedenen untersuchten Konservierungsmittel besser vergleichen zu können, wurden die Belastungstest bei jeweils gleicher Wirkstoffkonzentration (0,01 % in steriler wäßriger Lösung) und bei gleicher Ausgangsbelastung des jeweils eingesetzten Stammes durchgeführt. In den Tabellen 2 bis 5 sind die Keimzahlen nach jeweils 2 und 10 Minuten sowie nach 1 Stunde, 2 und 24 Stunden angegeben, in den Tabellen 6 bis 9 sind die Ergebnisse nach 1 Tag, 7, 14, 21 und 28 Tagen festgehalten, da die Keimzahlen während der weiteren Laufzeit bis zum 28. Tag bei guter Konservierung nicht mehr ansteigen dürfen.
Wie aus der Monographie von K.H. Wallhäußer, Sterilisation, Desinfektion, Konservierung, 2. […]

[10] = Hydrolysis in presence of pancreatic juice under simulated physiological conditions
Description: Ferner wurde eine 1 %ige wäßrige Laurinsäurecholinesterchloridlösung in Gegenwart von Pankreassaft simulierten physiologischen Bedingungen (38°C) ausgesetzt und nach 1 Stunde und nach 24 Stunden Proben gezogen und auf entstandene freie Fettsäuren untersucht. Dazu wurden die Proben mit Petroläther extrahiert und im Extrakt ' die Fettsäuren mikroanalytisch bestimmt.

[11] = Pepton-Nährlösung, pH 7,0, read-out: MIC-Werte
[12] = ATCC10231, Candida albicans ATCC 10231, Pepton-Nährlösung, pH 7,0, read-out: MIC-Werte
[13] = ATCC11229, E. coli ATCC 11229, Pepton-Nährlösung, pH 7,0, read-out: MIC-Werte
[14] = Fusorium oxysporum, Pepton-Nährlösung, pH 7,0, read-out: MIC-Werte
[15] = ATCC25923, Staphylococcus aureus ATCC 25923, Pepton-Nährlösung, pH 7,0, read-out: MIC-Werte
[16] = Paecilomyces, pH 7, read-out: MIC-Werte

CCCCCC(=O)OCC[N+](C)(C)C [Capronsäurecholinesterchlorid]
MIC (Aspergillus fumigatus; [11]): > 400 µg/mL
MIC [1, 12]: > 400 µg/mL
MIC (E. coli ATCC 11229; [13]): > 400 µg/mL
MIC (Fusorium oxysporum; [14]): > 400 µg/mL
MIC [2, 15]: > 400 µg/mL
MIC (Streptococcus pyogenes; [11]): 100 µg/mL
MIC (Pseudomonas aeruginosa): > 400 µg/mL

CCCCCCCCCCCCCCCC(=O)OCC[N+](C)(C)C [Palmitinsäurecholinesterchlorid]
MIC (Aspergillus fumigatus; [11]): 100 µg/mL
MIC [1, 12]: 100 µg/mL
MIC (E. coli ATCC 11229; [13]): > 400 µg/mL
MIC (Fusorium oxysporum; [14]): > 400 µg/mL
MIC [2, 15]: 2.5 µg/mL
MIC (Streptococcus pyogenes; [11]): 1.25 µg/mL
MIC (Pseudomonas aeruginosa): > 400 µg/mL

CCCCCCCCCCCC(=O)OCC[N+](C)(C)C [Laurinsäurecholinesterchlorid]
MIC (Aspergillus fumigatus; pH 7, read-out: MIC-Werte): 10 µg/mL
MIC ([3]; Bacillus cereus, ATCC11778, pH 7, read-out: MIC-Werte): 3.13 µg/mL
MIC ([4]; Bacillus subtilis, ATCC6633, pH 7, read-out: MIC-Werte): 0.78 µg/mL
MIC ([1]; Candida albicans, ATCC10231, pH 7, read-out: MIC-Werte): 10 µg/mL
MIC (E. coli ATCC 11229; ATCC11229, pH 7, read-out: MIC-Werte): 10 µg/mL
MIC (Enterobacter aerogenes; pH 7, read-out: MIC-Werte): 100 µg/mL
MIC (Fusorium oxysporum; pH 7, read-out: MIC-Werte): 3.13 µg/mL
MIC (Paecilomyces Ehrlich; [16]): 0.78 µg/mL
MIC (Paecilomyces variati; [16]): 0.78 µg/mL
MIC (Proteus vulgaris; pH 7, read-out: MIC-Werte): 200 µg/mL
MIC (Pseudomonas fluorescens): 2.5 µg/mL
MIC ([2]; Staphylococcus aureus, ATCC25923, pH 7, read-out: MIC-Werte): 2.5 µg/mL
MIC ([5]; Staphylococcus, ATCC12228, pH 7, read-out: MIC-Werte): 0.78 µg/mL
MIC (Streptococcus pyogenes; pH 7, read-out: MIC-Werte): 0.16 µg/mL
MIC (Pseudomonas aeruginosa): 20 µg/mL
LD50 (Acute oral toxicity test): 3150 mg/kg
Wirkungen bei subakuter oraler Toxizitätsprüfung (Ratten): keine Wirkungen
direkte Hautreizung (Hautreaktionen) [6]: keine Hautreakticnen
Reaktion im Kontrollbezirk (Sensibilisierung) [7]: in keinem Falle eine Reaktion
Reaktion im Sinne von Rötung, Schwellung, Sekretion oder Hornhautveränderung (Kaninchenauge; 1 min): In keinem Falle kam es zu einer Reaktion
spontane Abwehrreaktionen (Kaninchenauge): keine spontanen Abwehrreaktionen
Säuregehalt der Trockensubstanz ([8]; after 8 hours boiling): 3,9%
Säuregehalt der Trockensubstanz ([8]; before boiling): 2,5%
Bedingungen für ausreichende Konservierung (Abfall der Keimzahl) [9]: weit übertroffen
Hydrolyse im Kontrollversuch ohne Pankreassaft ([10]; control without pancreatic juice, 38°C): keine Hydrolyse
metabolised at 1 h ([10]; pancreatic juice): 1.5%
metabolised at 24 h ([10]; pancreatic juice): 2.5%

N=C(NCCCCCCNC(=N)NC(=N)Nc1ccc(Cl)cc1)NC(=N)Nc1ccc(Cl)cc1 [Chlorhexidin-diacetat]
MIC (Aspergillus fumigatus; [11]): 12.5 µg/mL (≈ 24.7 µM)
MIC ([3]; ATCC11778, Bacillus cereus ATCC 11778, Pepton-Nährlösung, pH 7,0, read-out: MIC-Werte): 0.78 µg/mL (≈ 1.54 µM)
MIC ([4]; ATCC6633, Bacillus subtilis ATCC 6633, Pepton-Nährlösung, pH 7,0, read-out: MIC-Werte): 0.78 µg/mL (≈ 1.54 µM)
MIC [1, 12]: 3.13 µg/mL (≈ 6.19 µM)
MIC (E. coli ATCC 11229; [13]): 3.13 µg/mL (≈ 6.19 µM)
MIC (Enterobacter aerogenes; Enterobacter aerogenes, Pepton-Nährlösung, pH 7,0, read-out: MIC-Werte): 12.5 µg/mL (≈ 24.7 µM)
MIC (Fusorium oxysporum; [14]): 12.5 µg/mL (≈ 24.7 µM)
MIC (Paecilomyces Ehrlich; Paecilomyces Ehrlich, Pepton-Nährlösung, pH 7,0, read-out: MIC-Werte): 0.78 µg/mL (≈ 1.54 µM)
MIC (Paecilomyces variati; Paecilomyces variati, Pepton-Nährlösung, pH 7,0, read-out: MIC-Werte): 1.56 µg/mL (≈ 3.09 µM)
MIC (Proteus vulgaris; [11]): 50 µg/mL (≈ 98.9 µM)
MIC [2, 15]: 1.56 µg/mL (≈ 3.09 µM)
MIC ([5]; ATCC12228, Staphylococcus epidermis ATCC 12228, Pepton-Nährlösung, pH 7,0, read-out: MIC-Werte): 0.78 µg/mL (≈ 1.54 µM)
MIC (Streptococcus pyogenes; [11]): 0.78 µg/mL (≈ 1.54 µM)

Source: patent publication EP0059980A1, “Use of an antimicrobial preservative in ophtalmics and the care of contact lenses” (NATEC Institut für naturwissenschaftlich- technische …, priority 1981, dated 1982)
